Test results taken from patent publication US20160243198A1, “Pharmaceutical Composition for Preventing or Treating Osteoporosis Which Comprises Neuropeptide Y as Active Ingredient” (KYUNGPOOK NATIONAL UNIVERSITY INDUSTRY-ACADEMIC COOPERATION …, priority 2013, published 2016).
Entries after “also recorded” stand apart in the source; their conditions may differ.

Columns and labels:
[1] = test system: S1P receptor; conditions: administered so as to reduce the number of the osteoclasts in the bone marrow; cited from earlier work
[2] = test system: haematopoietic stem cell adhesion factors (Sdf-1a, Kit1, Angpt1, IL7, Vcam1, and Spp1) present in the osteoblasts; test: Expression of haematopoietic stem cell adhesion factors in osteoblasts treated with neuropeptide Y (real-time quantitative PCR); type: cell-based, C57BL/6 mice; conditions: neuropeptide Y 0, 1, and 5 nM for 3 days; compared to untreated osteoblasts (control); p<0.05, n=3
Experimental: (§1) Neuropeptide Y, a Y1 agonist, and a Y1 antagonist were purchased from Bache, and used. To perform an in vitro experiment, 1 nM NPY, and 5 nM NPY were diluted with a medium, and injected. For the in vivo experiment, a total of 15 mice (three mice in each group) were also anesthetized with a mixed solution of 100 mg/kg ketamine and 10 mg/kg xylazine, and 50 μg/kg of either neuropeptide Y, Y1 agonist, or Y1 antagonist, and 100 μl of PBS (Gibco) were injected through the tail veins of the mice.
Four- to six-week-old C57BL/6 mice were anesthetized, and sacrificed, and their tibias and femurs were incised. […]
(§2) To measure expression levels of haematopoietic stem cell adhesion factors (Sdf-1a, Kit1, Angpt1, IL7, Vcam1, and Spp1) present in the osteoblasts, a real-time quantitative polymerase chain reaction (PCR) method was used.
(§3) A total of RNAs were extracted from a cell lysate and bone marrow cells using an RNeasy Plus Mini kit (Qiagen, Korea, Ltd), and cDNA was synthesized from a total of 5 μg of RNA using a kit commercially available from Clontech (Mountain View, Calif.). Also, real-time quantitative PCR, which included denaturation at 95° C. for 10 minutes; and 40 cycles with one cycle consisting of denaturation at 95° C. for 10 seconds, annealing at 58° C. for 15 seconds, and extension at 72° C. for 20 seconds, was performed using a Corbett research RG-6000 real-time PCR machine. […]

[3] = test system: bone-marrow haematopoietic stem cell adhesion factors; test: Expression of bone-marrow haematopoietic stem cell adhesion factors in bone marrow after tail-vein injection (real-time quantitative PCR); type: in vivo, mice; conditions: 50 μg/kg through the tail veins; bone marrow taken after 60 minutes; p<0.05, n=3
Experimental: as §1, §2, §3

[4] = test system: bone-marrow hematopoietic progenitor cells in blood; test: Colony-forming cell (CFC) assay of blood after tail-vein injection; type: in vivo, mice; conditions: 50 μg/kg tail vein; after 60 minutes of injection (of 15 minutes, 60 minutes, 12 hours)
Experimental: as §1
A colony-forming cell (CFC) assay was performed to measure the number of bone-marrow hematopoietic progenitor cells in blood from mice.
First, the mice were anesthetized, and 500 μl to 700 μl of blood was drawn from the hearts of the mice, and collected in a heparin tube. Thereafter, the collected blood was added to an ammonium chloride solution (Stem Cell Technologies, Inc. 1:10), and kept in ice for 15 minutes to remove red blood cells. The blood was shaken at intervals of 2 to 3 minutes to sufficiently remove the red blood cells, and centrifuged at 1,000 rpm for 7 minutes. […] Then, colonies formed on the flask were counted. […]
To examine an effect of the activation of the neuropeptide Y receptor on the release of the bone marrow precursor cells into the blood, the colony number of the bone marrow precursor cells was also counted using a CFC assay as described in Example 1-4. […]

[5] = test system: bone-marrow haematopoietic stem cells; test: Flow cytometry analysis (FAC) of bone-marrow haematopoietic stem cells; type: in vivo, mice; conditions: 50 μg/kg; bone marrow after 60 minutes; compared to PBS; p<0.05, n=3
Experimental: To determine whether there is a change in the number of the bone-marrow haematopoietic stem cells present in the bone marrows from the mice, NPY and PBS were injected to normal mice. After 60 minutes, the bone marrows were collected, and analyzed by flow cytometry analysis (FAC) using five antibodies Lineage, Sca-1, c-kit, CD48, and CD150, which were markers for the bone-marrow haematopoietic stem cells.
To analyze the bone-marrow haematopoietic stem cells, the bone marrows collected from the tibias and femurs of 4- to 6-week-old C57BL/6 mice was added in an ammonium chloride solution (Stem Cell Technologies, Inc. 1:4) to remove red blood cells. Thereafter, the red blood cells were washed with a PBS (Gibco) solution supplemented with 10% fetal bovine serum (FBS, Gibco) and 1% sodium azide (Sigma-Aldrich), and then centrifuged at 300×g for 10 minutes. Hemoblasts included in the bone marrow were removed with MAC beads (MiltenyiBiotec) using a biotinylated lineage antibody (MiltenyiBiotec), and the remaining cells were reacted with Sca-1-PECY7, c-kit-APC, CD150-PE, CD48-FITC (BD Science) antibodies at 4° C. for 30 minutes, and then analyzed using an LSRII (BD Science) flow cytometer.
First, normal mice were divided into two groups (three mice in each group), and 50 μg/kg of neuropeptide Y and 100 μl of PBS (Gibco) were administered to the mice. […]

[6] = test system: bone-marrow haematopoietic stem cells and bone-marrow hematopoietic progenitor cells; test: Competitive transplantation assay; type: in vivo, mice
Experimental: As an experimental method capable of determining the migration of bone-marrow haematopoietic stem cells and bone-marrow hematopoietic progenitor cells present in the bone marrows of the mice into blood, a competitive transplantation assay were performed.
(§4) A mixture of bone marrow cells (2×10^6) of Ly5.2 (C57BL/6) donor mice and bone marrow cells (2×10^6) of Ly5.1 (BoyJ) mice was injected to recipient mice whose whole bodies were exposed to 10 Gy irradiations (2×5 Gy) through the tail veins thereof. On the week 8 of transplantation of the bone marrow cells, blood was drawn from the recipient mice, and analyzed by an LSR II (BD science) flow cytometer using CD45.1-PE (BD Science), and CD45.2-FITC (BD Science) antibodies. Repopulating units (RU) are indicated using a calculation method represented by the following Equation 1.
Repopulating unit (RU)=(20×CD45.2%)/(100−CD45.2%) [Equation 1]
as §4, with “([…])” for “(2×10^6)”, “Repopulating units (RU) are indicated using a calculation method represented by the following Equation 1.” left out

[7] = test system: osteoporosis model; test: Osteoporosis model (ovariotomy) and control model, micro-CT of femurs; type: in vivo, C57BL/6 female mice; conditions: for entire bone density in micro-CT images: compared to PBS
Experimental: Also, a total 6 female mice (three mice in each group), 12 weeks old, were subjected to an ovariotomy to establish an osteoporosis model. After a week, 50 μg/kg of neuropeptide Y and 100 μl of PBS (Gibco) were abdominally administered twice a day to the female mice at an interval of 12 hours for 3 weeks. As the control, a total 6 female mice (three mice in each group) were subjected to […] to establish a Sham model for osteoporosis. In this case, 100 μl of PBS or 50 μg/kg of neuropeptide Y was abdominally administered. […] To measure a bone density (bone volume/total volume) and a trabecular thickness, volume fractions with 2.5×0.5×0.5 mm^3 in the same portions of the femurs in each group were measured using Siemens Inveon software. First, three C57BL/6 female mice in each group, 12 weeks old, were subjected to an ovariotomy to establish an osteoporosis model. After a week, 50 μg/kg of neuropeptide Y and 100 μl of PBS (Gibco) were abdominally administered twice a day to the female mice at an interval of 12 hours for 3 weeks. As the control, the normal mice which were subjected to subcutaneous incision alone and into which 100 μl of PBS and 50 μg/kg of neuropeptide Y were abdominally administered were used. On the 22nd day, the femurs of the mice were isolated, and refrigerated in 80% ethanol, and the bone density and the trabecular thickness were then measured using micro CT.

[8] = osteoporotic (OVX) mice, 50 μg/kg abdominally twice a day for 3 weeks, versus PBS, n=3

Molecule	bone formation [1]	expression levels of Sdf-1a, Kit1, and Angpt1 in osteoblasts [2]	expression levels of the adhesion factors Sdf-1a, Kit1, Angpt1, and Vcam1 in bone marrow [3]	colony number of the bone-marrow hematopoietic progenitor cells released into the blood [4]	bone-marrow haematopoietic stem cells labeled with Lin−, Sca-1+, c-kit+, CD48−, and CD150+ in the bone marrow [5]	number of the haematopoietic stem cells (CD45.2+ cells) in the bone marrows of injected mice ([6]; compared to bone marrows of mice into which PBS was injected)	ratio of the CD45.2+ cells ([6]; donor bone marrow of injected mice mixed with Ly5.1 bone marrow, recipient blood 8 weeks after transplantation, compared to PBS)	entire bone density in micro-CT images ([7]; control (Sham) model, 50 μg/kg abdominally)	decrease in bone density and trabecular thickness of the osteoporotic mice ([7]; long-term administration in the osteoporosis model)	entire bone density in micro-CT images ([7]; osteoporotic (OVX) mice, 50 μg/kg abdominally twice a day for 3 weeks)	bone density (BV/TV, %) [7, 8]	trabecular thickness (mm) [7, 8]
CCCCCCCCc1ccc(CCC(N)(CO)CO)cc1 [FTY720]	increases	–	–	–	–	–	–	–	–	–	–	–
CCCCCCCCCCCCC/C=C/[C@@H](O)[C@@H](N)COP(=O)(O)O [sphingosine-1-phosphate]	increases	–	–	–	–	–	–	–	–	–	–	–
neuropeptide Y	–	decreased in a ration-dependent manner	decreased; also recorded: generally reduced	largest colony number	decreased in the bone marrow	lower	reduced	higher entire bone density; also recorded: increased	inhibited	higher entire bone density; also recorded: remarkably increased	higher	higher
